In brackets after ≈: the same amount, converted by molar mass.
Tests used:
Test in all cases: Antimicrobial activity, MIC by broth microdilution
Type in all cases: cell-based
[1] = tested on: Escherichia coli strain ATCC25922; conditions: ATCC25922, 18 h, cation-adjusted Mueller-Hinton broth, about 5×10^5 CFU/mL, 35° C., about 18 hours, read-out: MIC Escherichia coli ATCC25922
Source text: (§1) Test Example 4 Evaluation of the Antimicrobial Activity
(§2) For minimum inhibitory concentration (MIC) measurement, the following broth microdilution method was applied as adapted from the standard procedure recommended by the CLSI (Clinical and Laboratory Standards Institute).
(§3) The bacteria used were Pseudomonas aeruginosa strain ATCC27853, Escherichia coli strain ATCC25922, and Klebsiella pneumoniae strain ATCC13883. After culture overnight on a heart infusion agar medium, the cells of a test bacterium were scraped off, and a bacterial solution suspended to have a turbidity of level 0.5 on the McFarland scale was diluted and used as an inoculum solution. The inoculum solution was inoculated in a cation-adjusted Mueller-Hinton broth medium containing a test compound so that the final inoculation concentration was about 5×10^5 CFU/mL, and cultured at 35° C. for about 18 hours. A minimum drug concentration at which no cell growth was visible to the naked eye was designated as MIC. […] In the table, ND represents the case where suppression of the cell growth in a drug concentration-dependent manner was not observed (Not Determined), and NT represents that no test was conducted (Not Tested).

[2] = tested on: Pseudomonas aeruginosa strain ATCC27853; conditions: ATCC27853, 18 h, cation-adjusted Mueller-Hinton broth, about 5×10^5 CFU/mL, 35° C., about 18 hours, read-out: MIC Pseudomonas aeruginosa ATCC27853
Source text: as §1, §2, §3

[3] = tested on: Klebsiella pneumoniae strain ATCC13883; conditions: ATCC13883, cation-adjusted Mueller-Hinton broth, about 5×10^5 CFU/mL, 35° C., about 18 hours, read-out: MIC Klebsiella pneumoniae ATCC13883
Source text: as §1, §2, §3

| MIC [1] [µg/mL] | MIC [2] [µg/mL] | MIC [3] [µg/mL] | SMILES |
| --- | --- | --- | --- |
| 1 (≈ 2.32 µM) | 8 (≈ 18.5 µM) | 2 (≈ 4.63 µM) | C[C@H](O)c1nccn1[C@H](CN)c1cc(-c2ccc(C#CC3CC(NC4CC4)C3)cc2)on1 (stereo partly drawn) [Compound 129, (1S)-1-(1-{(1R)-2-amino-1-[5-(4-{[3-(cyclopropylamino)cyclobutyl]ethynyl}phenyl)-1,2-oxazol-3-yl]ethyl}-1H-imidazol-2-yl)ethan-1-ol] |
| 0.25 (≈ 0.69 µM) | 8 (≈ 22.1 µM) | 0.25 (≈ 0.69 µM) | C[C@H](O)c1nccn1[C@H](CN)c1cc(-c2ccc(C#CC3CC3)cc2)on1 [Compound 60, (1S)-1-{1-[(1R)-2-amino-1-(5-[4-(cyclopropylethynyl)phenyl]-1,2-oxazol-3-yl}ethyl]-1H-imidazol-2-yl}ethan-1-ol] |
| 1 (≈ 2.32 µM) | 8 (≈ 18.5 µM) | 2 (≈ 4.64 µM) | C[C@H](O)c1nccn1[C@H](CN)c1cc(-c2ccc(C#C[C@@H]3[C@H]4CN(C=O)C[C@@H]34)cc2)on1 [Compound 117, (1R,5S,6s)-6-[(4-{3-[(1R)-2-amino-1-{2-[(1S)-1-hydroxyethyl]-1H-imidazol-1-yl}ethyl]-1,2-oxazol-5-yl}phenyl)ethynyl]-3-azabicyclo[3.1.0]hexane-3-carbaldehyde] |
| 0.5 (≈ 1.19 µM) | 32 (≈ 76.5 µM) | 2 (≈ 4.78 µM) | C[C@H](O)c1nccn1Cc1cc(-c2ccc(C#C[C@H]3C[C@H](NC4COC4)C3)cc2)on1 [Compound 135, (S)-1-(1-((5-(4-(((1r,3S)-3-(oxetan-3-ylamino)cyclobutyl)ethynyl)phenyl)isoxazol-3-yl)methyl)-1H-imidazol-2-yl)ethanol] |
| 64 (≈ 199 µM) | 64 (≈ 199 µM) | > 128 | C[C@H](O)c1nccn1Cc1cc(-c2ccc(C#CCN)cc2)on1 [Compound 30, (1S)-1-[l-({5-[4-(3-aminoprop-1-yn-1-yl)phenyl]-1,2-oxazol-3-yl}methyl)-1H-imidazol-2-yl]ethan-1-ol] |
| 0.5 (≈ 1.08 µM) | 2 (≈ 4.33 µM) | 1 (≈ 2.17 µM) | COCCN1C[C@@H]2[C@@H](C#Cc3ccc(-c4cc([C@@H](CN)n5ccnc5[C@H](C)O)no4)cc3)[C@@H]2C1 [Compound 101, (1S)-1-(1-{(1R)-2-Amino-1-[5-(4-{[(1R,5S,6s)-3-(2-methoxyethyl)-3-azabicyclo[3.1.0]hexan-6-yl]ethynyl}phenyl)-1,2-oxazol-3-yl]ethyl}-1H-imidazol-2-yl)ethan-1-ol] |
| 4 (≈ 8.17 µM) | 4 (≈ 8.17 µM) | 16 (≈ 32.7 µM) | C[C@H](O)c1nccn1[C@H](CN)c1cc(-c2ccc(C#C[C@@H]3[C@H]4CN(CCCC(=O)O)C[C@@H]34)cc2)on1 [Compound 113, 4-{(1R,5S,6s)-6-[(4-{3-[(1R)-2-amino-1-{2-[(1S)-1-hydroxyethyl]-1H-imidazol-1-yl}ethyl]-1,2-oxazol-5-yl}phenyl)ethynyl]-3-azabicyclo[3.1.0]hexan-3-yl}butanoic acid] |
| 0.12 (≈ 0.33 µM) | 16 (≈ 44 µM) | 0.25 (≈ 0.688 µM) | C[C@H](O)c1nccn1Cc1cc(-c2ccc(C#C[C@H]3C[C@H](O)C3)cc2)on1 [Compound 54, trans-3-({4-[3-({2-[(1S)-1-Hydroxyethyl]-1H-imidazol-1-yl}methyl)-1,2-oxazol-5-yl]phenyl}ethynyl)cyclobutan-1-ol] |
| 1 (≈ 2.23 µM) | 8 (≈ 17.9 µM) | 4 (≈ 8.94 µM) | C[C@H](O)c1nccn1[C@H](CN)c1cc(-c2ccc(C#C[C@H]3C[C@H](NC4COC4)C3)cc2)on1 [Compound 133, (1S)-1-{1-[(1R)-2-amino-1-{5-[4-({trans-3-[(oxetan-3-yl)amino]cyclobutyl}ethynyl)phenyl]-1,2-oxazol-3-yl}ethyl]-1H-imidazol-2-yl} ethan-1-ol] |
| 0.25 (≈ 0.637 µM) | 64 (≈ 163 µM) | 2 (≈ 5.1 µM) | C[C@H](O)c1nccn1[C@H](CN)c1cc(-c2ccc(C#CC3CCOC3)cc2)on1 (stereo partly drawn) [Compound 75, (1S)-1-{1-[(1R)-2-amino-1-(5-{4-[(oxolan-3-yl)ethynyl]phenyl}-1,2-oxazol-3-yl)ethyl]-1H-imidazol-2-yl} ethan-1-ol] |
| 2 (≈ 4.21 µM) | 2 (≈ 4.21 µM) | 4 (≈ 8.43 µM) | C[C@H](O)c1nccn1[C@H](CN)c1cc(-c2ccc(C#C[C@@H]3[C@H]4CN(C(=O)C(N)=O)C[C@@H]34)cc2)on1 [Compound 124, 2-{(1R,5S,6s)-6-[(4-{3-[(1R)-2-amino-1-{2-[(1S)-1-hydroxyethyl]-1H-imidazol-1-yl}ethyl]-1,2-oxazol-5-yl}phenyl)ethynyl]-3-azabicyclo[3.1.0]hexan-3-yl}-2-oxoacetamide] |
| 4 (≈ 11 µM) | 16 (≈ 44.1 µM) | 8 (≈ 22.1 µM) | C[C@H](O)c1nccn1Cc1cc(-c2ccc(C#C[C@H]3C[C@H](N)C3)cc2)on1 [Compound 23, (1S)-1-{1-[(5-(4-[(trans-3-aminocyclobutyl)ethynyl]phenyl}-1,2-oxazol-3-yl)methyl]-1H-imidazol-2-yl}ethan-1-ol] |
| 16 (≈ 39.4 µM) | 16 (≈ 39.4 µM) | 64 (≈ 157 µM) | C[C@H](O)c1nccn1[C@H](CN)c1cc(-c2ccc(C#C[C@H]3CC3C(=O)O)cc2)on1 (stereo partly drawn) [Compound 126, trans-2-[(4-{3-[(1R)-2-amino-1-{2-[(1S)-1-hydroxyethyl]-1H-imidazol-1-yl}ethyl]-1,2-oxazol-5-yl}phenyl)ethynyl]cyclopropane-1-carboxylate] |
| 4 (≈ 9.47 µM) | 4 (≈ 9.47 µM) | 8 (≈ 18.9 µM) | C[C@H](O)c1nccn1[C@H](CN)c1cc(-c2ccc(C#C[C@H]3C[C@](O)(CO)C3)cc2)on1 [Compound 90, cis-3-[(4-{3-[(1R)-2-amino-1-{2-[(1S)-1-hydroxyethyl]-1H-imidazol-1-yl}ethyl]-1,2-oxazol-5-yl}phenyl)ethynyl]-1-(hydroxymethyl)cyclobutan-1-ol] |
| 2 (≈ 5.1 µM) | 8 (≈ 20.4 µM) | 2 (≈ 5.1 µM) | C[C@H](O)c1nccn1[C@H](CN)c1cc(-c2ccc(C#C[C@H]3C[C@@H](O)C3)cc2)on1 [Compound 125, cis-3-[(4-{3-[(1R)-2-amino-1-{2-[(1S)-1-hydroxyethyl]-1H-imidazol-1-yl}ethyl]-1,2-oxazol-5-yl}phenyl)ethynyl]cyclobutan-1-ol] |
| 4 (≈ 9.23 µM) | 16 (≈ 36.9 µM) | 8 (≈ 18.5 µM) | CC(=O)N[C@H]1C[C@H](C#Cc2ccc(-c3cc([C@@H](CN)n4ccnc4[C@H](C)O)no3)cc2)C1 [Compound 115, N-{trans-3-[(4-{3-[(1R)-2-amino-1-{2-[(1S)-1-hydroxyethyl]-1H-imidazol-1-yl}ethyl]-1,2-oxazol-5-yl}phenyl)ethynyl]cyclobutyl} acetamide] |
| 2 (≈ 4.77 µM) | 8 (≈ 19.1 µM) | 4 (≈ 9.54 µM) | C[C@H](O)c1nccn1[C@H](CN)c1cc(-c2ccc(C#C[C@H]3C[C@H](NC=O)C3)cc2)on1 [Compound 106, N-{trans-3-[(4-{3-[(1R)-2-amino-1-(2-[(1S)-1-hydroxyethyl]-1H-imidazol-1-yl}ethyl]-1,2-oxazol-5-yl}phenyl)ethynyl]cyclobutyl}formamide] |
| 2 (≈ 4.73 µM) | 4 (≈ 9.47 µM) | 8 (≈ 18.9 µM) | C[C@H](O)c1nccn1[C@H](CN)c1cc(-c2ccc(C#C[C@H]3C[C@@](O)(CO)C3)cc2)on1 [Compound 89, trans-3-[(4-(3-[(1R)-2-Amino-1-{2-[(1S)-1-hydroxyethyl]-1H-imidazol-1-yl}ethyl]-1,2-oxazol-5-yl}phenyl)ethynyl]-1-(hydroxymethyl)cyclobutan-1-ol] |
| 2 (≈ 4.34 µM) | 8 (≈ 17.4 µM) | 4 (≈ 8.69 µM) | C[C@H](O)c1nccn1Cc1cc(-c2ccc(C#C[C@@H]3[C@H]4CN(CCCC(=O)O)C[C@@H]34)cc2)on1 [Compound 67, 4-[(1R,5S,6s)-6-({4-[3-({2-[(1S)-1-Hydroxyethyl]-1H-imidazol-1-yl}methyl)-1,2-oxazol-5-yl]phenyl}ethynyl)-3-azabicyclo[3.1.0]hexan-3-yl]butanoic acid] |
| 1 (≈ 2.17 µM) | 2 (≈ 4.33 µM) | 2 (≈ 4.33 µM) | CC(O)CN1C[C@@H]2[C@@H](C#Cc3ccc(-c4cc([C@@H](CN)n5ccnc5[C@H](C)O)no4)cc3)[C@@H]2C1 (stereo partly drawn) [Compound 120, 1-{(1R,5S,6s)-6-[(4-{3-[(1R)-2-amino-1-{2-[(1S)-1-hydroxyethyl]-1H-imidazol-1-yl}ethyl]-1,2-oxazol-5-yl}phenyl)ethynyl]-3-azabicyclo[3.1.0]hexan-3-yl}propan-2-ol] |
| 0.12 (≈ 0.33 µM) | 16 (≈ 44 µM) | 0.25 (≈ 0.688 µM) | C[C@H](O)c1nccn1Cc1cc(-c2ccc(C#C[C@H]3C[C@@H](O)C3)cc2)on1 [Compound 88, cis-3-({4-[3-((2-[(1S)-1-Hydroxyethyl]-1H-imidazol-1-yl}methyl)-1,2-oxazol-5-yl]phenyl}ethynyl)cyclobutan-1-ol] |
| 0.25 (≈ 0.542 µM) | 4 (≈ 8.67 µM) | 0.5 (≈ 1.08 µM) | COC(=O)N1C[C@@H]2[C@@H](C#Cc3ccc(-c4cc([C@@H](CN)n5ccnc5[C@H](C)O)no4)cc3)[C@@H]2C1 [Compound 118, methyl (1R,5S,6s)-6-[(4-{3-[(1R)-2-amino-1-{2-[(1S)-1-hydroxyethyl]-1H-imidazol-1-yl}ethyl]-1,2-oxazol-5-yl}phenyl)ethynyl]-3-azabicyclo[3.1.0]hexane-3-carboxylate] |

— patent publication US20220002279A1, “NOVEL IMIDAZOLE DERIVATIVE” (priority 2018, published 2022)
